The source of these data is ChEMBL document CHEMBL5512641, “Evaluation of novel 2-(quinoline-2-ylthio)acetamide derivatives linked to diphenyl-imidazole as α-glucosidase inhibitors: Insights from in silico, in vitro, and in vivo studies on their anti-diabetic properties” (Eur J Med Chem, 2024).

In data set [1] the target is T1, Alpha-glucosidase (Saccharomyces cerevisiae S288c, UniProt P53341+P38158+P07265). Kind of data set: Inhibition of Saccharomyces cerevisiae alpha-glucosidase using p-nitrophenyl-alpha-D-glucopyranoside as substrate measured after 20 mins by spectrophotometer. It counts as protein assay.
For data set [2], the target named is T1, Alpha-glucosidase. Put plainly: Inhibition of Saccharomyces cerevisiae alpha-glucosidase using p-nitrophenyl-alpha-D-glucopyranoside as substrate preincubated for 10 mins followed by substrate addition and measured after 20 mins by spectrophotometer. In kind it is protein assay.
The target in data set [3] is T1, Alpha-glucosidase. Kind of data set: Uncompetitive inhibition of Saccharomyces cerevisiae alpha-glucosidase using varying concentrations of p-nitrophenyl-alpha-D-glucopyranoside as substrate by Lineweaver-Burk plot analysis. In kind it is protein assay.
Data set [4] has as its system Rattus norvegicus. Put plainly: Antidiabetic activity in 16 hrs fasted high fat diet/streptozotocin induced diabetic Wistar albino rat model assessed as reduction in blood glucose level at 10 to 50 mg/kg, po pretreated for 30 mins followed by glucose administration and measured immediately by oral glucose tolerance test. Particulars: dose 10-50 mg/kg. In kind it is functional, organism-based.

Data set [5] deals with Rattus norvegicus. Kind of data set: Antidiabetic activity in high fat diet/streptozotocin induced diabetic Wistar albino rat model assessed as reduction in blood glucose level at 20 mg/kg, po administered once daily and measured on day 28 using overnight fasted rat blood by automatic blood glucose meter. It counts as functional. Particulars: time 28 day.
Data set [6] relates to Rattus norvegicus. Put plainly: Antidiabetic activity in high fat diet/streptozotocin induced diabetic Wistar albino rat model assessed as reduction in blood glucose level at 50 mg/kg, po administered once daily and measured on day 28 using overnight fasted rat blood by automatic blood glucose meter. In kind it is functional. Particulars: time 28 day.
The nature of data set [7]: Acute toxicity in male Wistar albino rat assessed as symptoms of toxicity at 250 to 1000 mg/kg, po administered via gastric gavage and measured daily for 72 hrs. It counts as organism-based. Particulars: in vivo, dose 250-1000 mg/kg.
For data set [8], the system named is Rattus norvegicus. Put plainly: Antidiabetic activity in high fat diet/streptozotocin induced diabetic Wistar albino rat model assessed as reduction in blood glucose level at 10 to 50 mg/kg, po administered once daily and measured on day 7 using overnight fasted rat blood by automatic blood glucose meter. In kind it is functional, organism-based. Particulars: dose 10-50 mg/kg, time 7.0 day.

Data set [9] has as its system Rattus norvegicus. Kind of data set: Antidiabetic activity in high fat diet/streptozotocin induced diabetic Wistar albino rat model assessed as reduction in blood glucose level at 50 mg/kg, po administered once daily and measured on day 21 using overnight fasted rat blood by automatic blood glucose meter. In kind it is functional, organism-based. Particulars: time 21.0 day.

Data set [10] deals with Rattus norvegicus. Kind of data set: Antidiabetic activity in 16 hrs fasted high fat diet/streptozotocin induced diabetic Wistar albino rat model assessed as reduction in blood glucose level at 25 to 50 mg/kg, po pretreated for 30 mins followed by glucose administration and measured after 30 mins by oral glucose tolerance test. In kind it is functional, organism-based. Particulars: dose 25-50 mg/kg, time 60.0 min.

The nature of data set [11]: Acute toxicity in male Wistar albino rat assessed as tremors at 250 to 1000 mg/kg, po administered via gastric gavage and measured daily for 2 weeks. It counts as organism-based. The following applies: in vivo, 336 h, dose 250-1000 mg/kg.
Data set [12] in a line: Acute toxicity in male Wistar albino rat assessed as effect on sleeping at 250 to 1000 mg/kg, po administered via gastric gavage and measured daily for 2 weeks. In kind it is organism-based. Particulars: in vivo, 336 h, dose 250-1000 mg/kg.
Data set [13] concerns Rattus norvegicus. Put plainly: Antidiabetic activity in high fat diet/streptozotocin induced diabetic Wistar albino rat model assessed as increase in body weight at 10 to 50 mg/kg, po administered once daily and measured for 28 days. Particulars: dose 10-50 mg/kg, time 28.0 day. In kind it is functional, organism-based.
Data set [14] in a line: Acute toxicity in male Wistar albino rat assessed as salivation at 250 to 1000 mg/kg, po administered via gastric gavage and measured daily for 2 weeks. In kind it is organism-based. Particulars: in vivo, 336 h, dose 250-1000 mg/kg.
In data set [15] the target is T1, Alpha-glucosidase. Kind of data set: Competitive inhibition of Saccharomyces cerevisiae alpha-glucosidase using varying concentrations of p-nitrophenyl-alpha-D-glucopyranoside as substrate by Lineweaver-Burk plot analysis. In kind it is protein assay.
Data set [16] in a line: Acute toxicity in male Wistar albino rat assessed as symptoms of diarrhea at 250 to 1000 mg/kg, po administered via gastric gavage and measured daily for 2 weeks. It counts as organism-based. The following applies: in vivo, 336 h, dose 250-1000 mg/kg.
A short description of data set [17]: Acute toxicity in male Wistar albino rat assessed as convulsions at 250 to 1000 mg/kg, po administered via gastric gavage and measured daily for 2 weeks. Particulars: in vivo, 336 h, dose 250-1000 mg/kg. It counts as organism-based.
Data set [18] can be described thus: Acute toxicity in male Wistar albino rat assessed as lethargy at 250 to 1000 mg/kg, po administered via gastric gavage and measured daily for 2 weeks. In kind it is organism-based. Particulars: in vivo, 336 h, dose 250-1000 mg/kg.
Data set [19] has as its system Rattus norvegicus. Kind of data set: Antidiabetic activity in high fat diet/streptozotocin induced diabetic Wistar albino rat model assessed as improvement in pancreatic islet architecture at 10 to 50 mg/kg, po administered once daily for 28 days by H and E staining based microscopic analysis. In kind it is functional, organism-based. Particulars: dose 10-50 mg/kg, time 28.0 day.

The subject of data set [20] is Rattus norvegicus. Put plainly: Antidiabetic activity in high fat diet/streptozotocin induced diabetic Wistar albino rat model assessed as reduction in blood glucose level at 10 mg/kg, po administered once daily and measured on day 28 using overnight fasted rat blood by automatic blood glucose meter. In kind it is functional. Particulars: time 28 day.
The nature of data set [21]: Acute toxicity in male Wistar albino rat assessed as animal death at 250 to 1000 mg/kg, po administered via gastric gavage and measured daily for 72 hrs to 2 weeks. In kind it is organism-based. Particulars: in vivo, dose lower 250 mg/kg, time lower 3 day, dose upper 1000 mg/kg, time upper 14 day.
Data set [22] has as its system Rattus norvegicus. Put plainly: Antidiabetic activity in high fat diet/streptozotocin induced diabetic Wistar albino rat model assessed as reduction in blood glucose level at 10 to 50 mg/kg, po administered once daily and measured immediately by automatic blood glucose meter. In kind it is functional, organism-based. Particulars: dose 10-50 mg/kg.
Data set [23] deals with Rattus norvegicus. Put plainly: Antidiabetic activity in high fat diet/streptozotocin induced diabetic Wistar albino rat model assessed as reduction in blood glucose level at 25 to 50 mg/kg, po administered once daily and measured on day 14 using overnight fasted rat blood by automatic blood glucose meter. In kind it is functional, organism-based. Particulars: dose 25-50 mg/kg, time 14.0 day.

Data set [24] concerns Rattus norvegicus. Kind of data set: Antidiabetic activity in 16 hrs fasted high fat diet/streptozotocin induced diabetic Wistar albino rat model assessed as reduction in blood glucose level at 10 to 50 mg/kg, po pretreated for 30 mins followed by glucose administration and measured after 60 to 120 mins by oral glucose tolerance test. It counts as functional, organism-based. The following applies: dose 10-50 mg/kg, time 30-150 min.

The target in data set [25] is Alpha-glucosidase (Saccharomyces cerevisiae S288c) (UniProt P53341+P38158+P07265). Kind of data set: Potency index, ratio of acarbose IC50 to test compound IC50 for inhibition of Saccharomyces cerevisiae alpha-glucosidase using p-nitrophenyl-alpha-D-glucopyranoside as substrate measured after 20 mins by spectrophotometer. In kind it is protein assay.
For data set [26], the system named is Rattus norvegicus. Kind of data set: Antidiabetic activity in high fat diet/streptozotocin induced diabetic rat Wistar albino model assessed as reduction in blood glucose level at 50 mg/kg, po administered once daily and measured on day 14 using overnight fasted rat blood by automatic blood glucose meter. In kind it is functional, organism-based. Particulars: time 14.0 day.

Data set [27] deals with Rattus norvegicus. Kind of data set: Antidiabetic activity in 16 hrs fasted high fat diet/streptozotocin induced diabetic Wistar albino rat model assessed as reduction in blood glucose level at 50 mg/kg, po pretreated for 30 mins followed by glucose administration and measured after 30 to 120 mins by oral glucose tolerance test. It counts as functional, organism-based. Particulars: time […].

Data set [28] has as its system Rattus norvegicus. Kind of data set: Antidiabetic activity in high fat diet/streptozotocin induced diabetic Wistar albino rat model assessed as increase in body weight at 50 mg/kg, po administered once daily and measured for 28 days. The following applies: time 28.0 day. In kind it is functional, organism-based.

The source made the active and inactive calls. The rule behind the calls is not given here.

A word on the IC50: it is the concentration needed to halve the response being measured. Low readings indicate inhibition by little substance, high ones a need for much substance. In data set [1], `O=C(CSc1nc2ccccc2cc1-c1nc(-c2ccccc2)c(-c2ccccc2)[nH]1)Nc1cccc(Cl)c1Cl` returned an IC50 of 1580 nM. In other words, the single-digit micromolar range.
Still for that read-out and setting: as for `O=C(CSc1nc2ccccc2cc1-c1nc(-c2ccccc2)c(-c2ccccc2)[nH]1)Nc1cccc(Cl)c1`, the figure is 1850 nM; as for `O=C(CSc1nc2ccccc2cc1-c1nc(-c2ccccc2)c(-c2ccccc2)[nH]1)Nc1ccc(Cl)cc1`, 1800 nM.
With `COc1ccc2nc3cc(Cl)ccc3c(SCC(=O)Nc3ccc(C)cc3)c2c1`, the IC50 in data set [2] turned out to be 80000 nM.
Turning to `Cc1cccc(NC(=O)CSc2nc3ccccc3cc2-c2nc(-c3ccccc3)c(-c3ccccc3)[nH]2)c1C`, the IC50 in data set [1] turned out to be 2050 nM. In other words, the single-digit micromolar range.
The Ki is the equilibrium dissociation constant of an inhibitor or competing ligand from its target. Low values mean a stronger hold on the target, high ones a looser hold on the target. The compound `CCc1ccc(NC(=O)CSc2nc3ccccc3cc2-c2nc(-c3ccccc3)c(-c3ccccc3)[nH]2)cc1` registered a Ki in data set [3] of 770 nM. The same compound registered an IC50 in [1] of 960 nM.
Take `O=C(CSc1nc2ccccc2cc1-c1nc(-c2ccccc2)c(-c2ccccc2)[nH]1)Nc1ccc(Br)cc1`: the IC50 in data set [1] was 1980 nM.
Same read-out and setting: as for `Cc1ccc(NC(=O)CSc2nc3ccccc3cc2-c2nc(-c3ccccc3)c(-c3ccccc3)[nH]2)cc1`, the figure is 1770 nM; as for `Cc1cc([N+](=O)[O-])ccc1NC(=O)CSc1nc2ccccc2cc1-c1nc(-c2ccccc2)c(-c2ccccc2)[nH]1`, 1530 nM.
Consider `O=C(CSc1nc2ccccc2cc1-c1nc(-c2ccccc2)c(-c2ccccc2)[nH]1)Nc1ccc(F)cc1`, for which the outcome in [4], in [8] and in data set [22] was inactive. Also, the Activity in data set [5] was 207.83 mg/dL; in data set [6], 127.83 mg/dL; in [7], “Non-Toxic”; in data set [11] it was “Non-Toxic”; in [12], “Non-Toxic”; in [14], “Non-Toxic”. In addition, the Activity entry is “Non-Toxic” in data set [16]; “Non-Toxic” in data set [17]; “Non-Toxic” in [18]; 242 mg/dL in data set [20]; “Non-Toxic” in data set [21]. The result in data set [9], in data set [10], in data set [13], in data set [19], in data set [23] and in data set [24] was Active. In addition, the half-maximal inhibitory concentration (IC50) in [1] stood at 180 nM. Also, the inhibition constant (Ki) in [15] was determined as 150 nM.
The compound `Cc1cccc(C)c1NC(=O)CSc1nc2ccccc2cc1-c1nc(-c2ccccc2)c(-c2ccccc2)[nH]1` registered a Ki in data set [3] of 1000 nM. In data set [1], the IC50 was found to be 1250 nM.
The compound `O=C(CSc1nc2ccccc2cc1-c1nc(-c2ccccc2)c(-c2ccccc2)[nH]1)NCc1ccc(F)cc1` returned an IC50 in data set [1] of 1260 nM. In addition, the Ki in data set [15] came out at 1400 nM.
The compound `O=C(CSc1nc2ccccc2cc1-c1nc(-c2ccccc2)c(-c2ccccc2)[nH]1)Nc1ccccc1` displayed an IC50 in data set [1] of 2100 nM. Further, the Ratio IC50 in data set [25] amounted to 375.
Turning to `O=C(CSc1nc2ccccc2cc1-c1nc(-c2ccccc2)c(-c2ccccc2)[nH]1)NCc1ccccc1`, the IC50 in data set [1] was found to be 1790 nM.
In turn, `Clc1ccccc1Cn1cc(CSc2nc(-c3ccccc3)c(-c3ccccc3)[nH]2)nn1` showed an IC50 in data set [2] of 85600 nM.
Compound `O=C(CSc1nc2ccccc2cc1-c1nc(-c2ccccc2)c(-c2ccccc2)[nH]1)Nc1ccccc1Cl` had an IC50 in data set [1] of 1950 nM. In other words, the single-digit micromolar range.
Turning to `Cc1cccc(C)c1NC(=O)CSc1nc2ccccc2cc1/C=N/NC(=O)c1ccccc1`, the IC50 in [2] turned out to be 14000 nM.
In data set [3], `Cc1c(NC(=O)CSc2nc3ccccc3cc2-c2nc(-c3ccccc3)c(-c3ccccc3)[nH]2)cccc1[N+](=O)[O-]` returned a Ki of 990 nM. The compound further came in with an IC50 in data set [1] of 1020 nM.
As to `Cc1ccccc1NC(=O)CSc1nc2ccccc2cc1-c1nc(-c2ccccc2)c(-c2ccccc2)[nH]1`, the IC50 in data set [1] was 1500 nM. This lies in the single-digit micromolar range.
With `O=C(CSc1nc2ccccc2cc1-c1nc(-c2ccccc2)c(-c2ccccc2)[nH]1)Nc1ccccc1F`, the IC50 in data set [1] was found to be 2020 nM. The IC50 values of the last two compounds are within 1.5-fold of each other.
Regarding `C[C@H]1O[C@H](O[C@H]2[C@H](O)[C@@H](O)[C@@H](O[C@H]3[C@H](O)[C@@H](O)C(O)O[C@@H]3CO)O[C@@H]2CO)[C@H](O)[C@@H](O)[C@@H]1N[C@H]1C=C(CO)[C@@H](O)[C@H](O)[C@H]1O` (stereo partly drawn) [ACARBOSE], the result in data set [26], in data set [27] and in data set [28] was Active. Besides, in data set [6], the Activity was 115 mg/dL.
Turning to `O=C(CSc1nc2ccccc2cc1-c1nc(-c2ccccc2)c(-c2ccccc2)[nH]1)Nc1ccc2ccccc2c1`, the IC50 in [1] was determined as 1220 nM. This compound showed a Ki in [15] of 2200 nM.
Regarding `Cc1ccc(CNC(=O)CSc2nc3ccccc3cc2-c2nc(-c3ccccc3)c(-c3ccccc3)[nH]2)cc1`, the IC50 in data set [1] came out at 1480 nM.
